The values that follow come from patent publication US20250171457A1, “NITROGEN-CONTAINING HETEROCYCLIC COMPOUND HAVING NRF2 ACTIVATION EFFECT” (CHUGAI SEIYAKU KABUSHIKI KAISHA, priority 2022, published 2025).

The test system of this assay is Nrf2 transcriptional activity (pARE-Luc reporter) in HepG2 cells. The assay can be described thus: In vitro Nrf2 transcriptional activity measurement by ARE-dependent reporter assay in HepG2 cell. Type of assay: cell-based, human. The settings on record: Homo sapiens; HepG2 cells transfected with pARE-Luc, 4 hours at 37° C.; luciferase activity of Example 1-54 or Example 17-23 at 3.75 μM defined as 100%. The method in brief:
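Luminescence readout (Bright-Glo) after 4 h, 37° C compound exposure of HepG2 cells carrying the ARE-luciferase vector pGL4.37. Each well converted to % response versus reference compound at 3.75 μM, and EC50 derived from dose-response curves.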

Take `C[C@@H]1CN(C)CCN1c1cc(Cl)c(C(=O)N2COc3c(cccc3-c3cc(N4C5CCC4COC5)c(-c4nnn[nH]4)cc3F)C2)c(Cl)c1` [Compound 16-4, [2,6-Dichloro-4-[(2R)-2,4-dimethylpiperazin-1-yl]phenyl]-[8-[2-fluoro-5-(3-oxa-8-azabicyclo[3.2.1]octan-8-yl)-4-(1H-tetrazol-5-yl)phenyl]-2,4-dihydro-1,3-benzoxazin-3-yl]methanone]: the half-maximal effective concentration (EC50) (in general, the midpoint of the concentration-response curve) was determined as 110 nM.
With `Cn1cc(-c2cc(Cl)c(C(=O)N3COc4c(cccc4-c4ccc(-c5nnn[nH]5)c(N5CCOCC5)c4)C3)c(Cl)c2)cn1` [Compound 16-5, [2,6-Dichloro-4-(1-methylpyrazol-4-yl)phenyl]-[8-[3-morpholin-4-yl-4-(1H-tetrazol-5-yl)phenyl]-2,4-dihydro-1,3-benzoxazin-3-yl]methanone] the figure was 200 nM.
Take `COC1CN(c2cc(Cl)c(C(=O)N3COc4c(cccc4-c4cc(N5C6CCC5COC6)c(C(=O)NS(C)(=O)=O)cc4F)C3)c(Cl)c2)C1` [Compound 16-6, 4-[3-[2,6-Dichloro-4-(3-methoxyazetidin-1-yl)benzoyl]-2,4-dihydro-1,3-benzoxazin-8-yl]-5-fluoro-N-methylsulfonyl-2-(3-oxa-8-azabicyclo[3.2.1]octan-8-yl)benzamide]: the 50% effective concentration (EC50) worked out at 170 nM.
The result for `O=C(O)c1cc(F)c(-c2cccc3c2OCN(C(=O)c2c(Cl)cc(N4CC5(C4)CC(F)(F)C5)cc2Cl)C3)cc1N1C2CCC1COC2` [Compound 16-7, 4-[3-[2,6-Dichloro-4-(6,6-difluoro-2-azaspiro[3.3]heptan-2-yl)benzoyl]-2,4-dihydro-1,3-benzoxazin-8-yl]-5-fluoro-2-(3-oxa-8-azabicyclo[3.2.1]octan-8-yl)benzoic acid] reads 1.4 nM; that for `O=C(O)c1cc(F)c(-c2cccc3c2OCN(C(=O)c2c(Cl)cc(N4CC5(CC(F)C5)C4)cc2Cl)C3)cc1N1C2CCC1COC2` [Compound 16-8, 4-[3-[2,6-Dichloro-4-(6-fluoro-2-azaspiro[3.3]heptan-2-yl)benzoyl]-2,4-dihydro-1,3-benzoxazin-8-yl]-5-fluoro-2-(3-oxa-8-azabicyclo[3.2.1]octan-8-yl)benzoic acid], 3.9 nM; that for `Cn1nnc(-c2cc(Cl)c(C(=O)N3COc4c(cccc4-c4cc(N5C6CCC5COC6)c(C(=O)O)cc4F)C3)c(Cl)c2)n1` [Compound 16-9, 4-[3-[2,6-Dichloro-4-(2-methyltetrazol-5-yl)benzoyl]-2,4-dihydro-1,3-benzoxazin-8-yl]-5-fluoro-2-(3-oxa-8-azabicyclo[3.2.1]octan-8-yl)benzoic acid], 12 nM.
The molecule `CC(C)Sc1cc(Cl)c(C(=O)N2COc3c(cccc3-c3ccc(C(=O)O)c(N4CCOCC4)c3)C2)c(Cl)c1` [Compound 16-10, 4-[3-(2,6-Dichloro-4-propan-2-ylsulfanylbenzoyl)-2,4-dihydro-1,3-benzoxazin-8-yl]-2-morpholin-4-ylbenzoic acid] gave a concentration for a half-maximal effect (EC50) of 9.3 nM.
The result for `COCCN1CCC(c2cc(Cl)c(C(=O)N3COc4c(cccc4-c4cc(N5CCOCC5)c(C(=O)O)cc4F)C3)c(Cl)c2)CC1` [Compound 16-11, 4-[3-[2,6-Dichloro-4-[1-(2-methoxyethyl)piperidin-4-yl]benzoyl]-2,4-dihydro-1,3-benzoxazin-8-yl]-5-fluoro-2-morpholin-4-ylbenzoic acid] reads 7.5 nM; that for `O=C(O)c1cc(F)c(-c2cccc3c2OCN(C(=O)c2c(Cl)cc(C4COC4)cc2Cl)C3)cc1N1CCOCC1` [Compound 16-12, 4-[3-[2,6-Dichloro-4-(oxetan-3-yl)benzoyl]-2,4-dihydro-1,3-benzoxazin-8-yl]-5-fluoro-2-morpholin-4-ylbenzoic acid], 9.8 nM; that for `C[C@@H]1CN(C)CCN1c1cc(Cl)c(C(=O)N2COc3c(cccc3-c3cc(N(C)[C@@H]4CCOC4)c(C(=O)O)cc3F)C2)c(Cl)c1` [Compound 16-13, 4-[3-[2,6-Dichloro-4-[(2R)-2,4-dimethylpiperazin-1-yl]benzoyl]-2,4-dihydro-1,3-benzoxazin-8-yl]-5-fluoro-2-[methyl-[(3R)-oxolan-3-yl]amino]benzoic acid], 4.4 nM.
With `CN(c1cc(-c2cccc3c2OCN(C(=O)c2c(Cl)cc(-c4cnn(C)c4)cc2Cl)C3)c(F)cc1C(=O)O)C1(C)COC1` [Compound 16-14, 4-[3-[2,6-Dichloro-4-(1-methylpyrazol-4-yl)benzoyl]-2,4-dihydro-1,3-benzoxazin-8-yl]-5-fluoro-2-[methyl-(3-methyloxetan-3-yl)amino]benzoic acid] the figure was 6.8 nM; with `O=C(O)c1cc(F)c(-c2cccc3c2OCN(C(=O)c2c(Cl)cc(N4CC5(COCCO5)C4)cc2Cl)C3)cc1N1C2CCC1COC2` [Compound 16-15, 4-[3-[2,6-Dichloro-4-(5,8-dioxa-2-azaspiro[3.5]nonan-2-yl)benzoyl]-2,4-dihydro-1,3-benzoxazin-8-yl]-5-fluoro-2-(3-oxa-8-azabicyclo[3.2.1]octan-8-yl)benzoic acid], 3 nM.
As for `N#CC1(F)CN(c2cc(Cl)c(C(=O)N3COc4c(cccc4-c4cc(N5C6CCC5COC6)c(C(=O)O)cc4F)C3)c(Cl)c2)C1` [Compound 16-16, 4-[3-[2,6-Dichloro-4-(3-cyano-3-fluoroazetidin-1-yl)benzoyl]-2,4-dihydro-1,3-benzoxazin-8-yl]-5-fluoro-2-(3-oxa-8-azabicyclo[3.2.1]octan-8-yl)benzoic acid], the 50% effective concentration (EC50) is 13 nM.
Turning to `COCC(F)(F)CN1CC2(C1)CN(c1cc(Cl)c(C(=O)N3COc4c(cccc4-c4cc(N5C6CCC5COC6)c(C(=O)O)cc4F)C3)c(Cl)c1)C2` [Compound 16-17, 4-[3-[2,6-Dichloro-4-[6-(2,2-difluoro-3-methoxypropyl)-2,6-diazaspiro[3.3]heptan-2-yl]benzoyl]-2,4-dihydro-1,3-benzoxazin-8-yl]-5-fluoro-2-(3-oxa-8-azabicyclo[3.2.1]octan-8-yl)benzoic acid], the midpoint of the response, the EC50, lay at 2.7 nM.
With `CC[C@@H](c1cccc2c1C(=O)NN(C(=O)c1c(Cl)cc(-c3cnn(C)c3)cc1Cl)C2)[C@H](C)C(=O)O` [Compound 17-1, (2S,3R)-3-[2-[2,6-Dichloro-4-(1-methylpyrazol-4-yl)benzoyl]-4-oxo-1,3-dihydrophthalazin-5-yl]-2-methylpentanoic acid] the figure was 2.2 nM; with `CC[C@@H](c1cccc2c1CON(C(=O)c1c(Cl)cc(-c3cnn(C)c3)cc1Cl)C2)[C@H](C)C(=O)O` [Compound 17-2, (2S,3R)-3-[3-[2,6-Dichloro-4-(1-methylpyrazol-4-yl)benzoyl]-1,4-dihydro-2,3-benzoxazin-8-yl]-2-methylpentanoic acid], 7.7 nM; with `CC[C@@H](c1cccc2c1OCN(C(=O)c1c(Cl)cc(-c3cnn(C)c3)cc1Cl)C2)[C@H](C)C(=O)O` [Compound 17-3, (2S,3R)-3-[3-[2,6-Dichloro-4-(1-methylpyrazol-4-yl)benzoyl]-2,4-dihydro-1,3-benzoxazin-8-yl]-2-methylpentanoic acid], 9.7 nM.
Turning to `CC[C@H](CC(=O)O)c1cccc2c1C(=O)NN(C(=O)c1c(Cl)cc(-c3cnn(C)c3)cc1Cl)C2` [Compound 17-4, (3R)-3-[2-[2,6-Dichloro-4-(1-methylpyrazol-4-yl)benzoyl]-4-oxo-1,3-dihydrophthalazin-5-yl]pentanoic acid], a half-maximal effect (EC50) was put at 10 nM.
